Test results as given in patent US20230132202A1, “Polymeric Binder and High Molecular Weight Polymer Antifouling Compositions” (The University of British Columbia, priority 2020, published 2023).

Key:
[1] = cited from earlier work
[2] = Drug release measurements from coated silicon wafers, UV-Vis; assay type: physicochemical
Procedure: Drug release measurements: The coated silicon wafers were added into the wells of 96 well-plate and immersed in PBS buffer (200 μL) was added to each well. At day 1 and day 7, the solution was collected and the drug concentration was measured using UV-Vis spectroscopy and standard curves prepared using pure bioactive agents. The released solution was diluted to 1 mL using PBS before the measurements.

[3] = cited from earlier work; remark: listed apart in the source
[4] = day 1, coated silicon wafer in PBS
[5] = day 7, coated silicon wafer in PBS

| Compound | Water solubility [1] | concentration of eluted drug [2, 4] | concentration of eluted drug [2, 5] | Net charge at pH 7.4 [3] |
| --- | --- | --- | --- | --- |
| CO[C@H]1/C=C/O[C@@]2(C)Oc3c(C)c(O)c4c(O)c(c(/C=N/N5CCN(C)CC5)c(O)c4c3C2=O)NC(=O)/C(C)=C\C=C\[C@H](C)[C@H](O)[C@@H](C)[C@@H](O)[C@@H](C)[C@H](OC(C)=O)[C@@H]1C [Rifampicin] | 0.0413 mg/mL |  |  |  |
| CC(=O)O[C@@]12CO[C@@H]1C[C@H](O)[C@@]1(C)C(=O)[C@H](O)C3=C(C)[C@@H](OC(=O)[C@H](O)[C@@H](NC(=O)OC(C)(C)C)c4ccccc4)C[C@@](O)([C@@H](OC(=O)c4ccccc4)[C@H]21)C3(C)C [Docetaxel] | <0.01 mg/mL | 12.5 ppm (microgram/mL) | 13.7 ppm (microgram/mL) | Neutral |
| NC[C@H]1O[C@H](O[C@H]2[C@H](O)[C@@H](O[C@H]3O[C@H](CO)[C@@H](O)[C@H](N)[C@H]3O)[C@H](N)C[C@@H]2N)[C@H](N)C[C@@H]1O [Tobramycin] | 53.7 mg/mL |  |  | Neutral |
| Penicillin | >30 mg/mL |  |  | Neutral |
| Gentamicin |  |  |  | Neutral |
| CC(=O)O[C@H]1C(=O)[C@@]2(C)[C@H]([C@H](OC(=O)c3ccccc3)[C@]3(O)C[C@H](OC(=O)[C@H](O)[C@@H](NC(=O)c4ccccc4)c4ccccc4)C(C)=C1C3(C)C)[C@]1(OC(C)=O)CO[C@@H]1C[C@@H]2O [Paclitaxel] |  | 1.3 ppm (microgram/mL) | 1.4 ppm (microgram/mL) |  |
